“Also recorded” adds a separate entry of the source.
Key:
[1] = test system: HCT-116 cells; assay: Cancer cell morphology (inverted microscope); type: cell-based, human; settings: for cancer cell morphology change: 48 hours, HCT-116; for microscopic evaluation of treated cancer cells (overall): HCT-116, versus control
Text: Three samples were examined from each experiment.

[2] = test system: HCT-116 cells; assay: Cancer cells viability by MTT assay; settings: for cancer cell viability (% of control) / effect on cancer cells survivability (in words): 48 hrs; for cancer cell viability (% of control) / effect on cancer cells survivability (in words) / attenuating cancer cells proliferation (in words): HCT-116; for effect on cancer cells survivability (in words): 100, 500 and 750 ug/mL; for dose dependence of effect on cancer cell survivability: HCT-116, FIG. 11
Description: HCT-116 cells were grown as previously described method by Khan et al. [“Fluorescent magnetic submicronic polymer (FMSP) nanoparticles induce cell death in human colorectal carcinoma cells” Artif Cells Nanomed Biotechnol. (2018 Jul. 25) 1-7, doi: 10.1080/21691401.2018.1491476]. In brief, HCT-116 cells were grown in the DMEM, 10% fetal bovine serum, L-glutamine, selenium chloride, penicillin, and streptomycin. The cells were culture in incubator (Heracell 150i, Thermo-scientific, USA) containing 5% CO2 at 37°. Finally, confluence cells were seeded into 96-well cell plates and once the cells become 80% confluence, the cancer cells were treated with different concentrations (100 μg/mL, 500 μg/mL and 750 μg/mL) of BG-(Tri)2, BG-(ATri)2, BG-(Atet)2, BG-(Imi)2, BG-(H3PO4)2, respectively. Thereafter, the treated cancer cells were microscopically monitored after 24 hrs and 48 hrs intervals. Three samples were examined from each experiment.
The effects of BG-(Tri)2, BG-(ATri)2, BG-(Atet)2, BG-(Imi)2, BG-(H3PO4)2 on cancer cells were determined by MTT assay. The cancer cells were seeded with 6×10^4 cells/mL in 96-well culture plates containing DMEM, 10% Fetal bovine serum, penicillin, and streptomycin and were incubated in CO2 incubator till they become 80% confluence. Then, cancer cells were treated with BG-(Tri)2, BG-(ATri)2, BG-(Atet)2, BG-(Imi)2, BG-(H3PO4)2 at concentrations of 100 μg/mL, 500 μg/mL and 750 μg/mL, respectively. […] MTT (5.0 mg/mL) solution was added in each well and cells were again incubated for 4 hrs in the CO2 incubator and finally media was changed with the addition of DMSO. The color intensity of each sample was measured using an ELISA plate reader (Biotek Instruments, USA) at wavelength 570 nm.
The following formula was used to calculate percentage of cell viability: % of Cell viability=Optical density (O.D) of BG-(Tri)2,BG-(ATri)2,BG-(Atet)2,BG-(Imi)2,BG-(H3PO4)2 cells/Optical density (O.D) of control cells×100 Statistical Analysis:
The mean±standard deviation (SD) from control and BG-(Tri)2, BG-(ATri)2, BG-(Atet)2, BG-(Imi)2, BG-(H3PO4)2 treated groups were calculated. All statistical analyses were completed with GraphPad Prism 6 (GraphPad Software). The difference between control and BG-(Tri)2, BG-(ATri)2, BG-(Atet)2, BG-(Imi)2, BG-(H3PO4)2 groups by a one-way ANOVA test (P<0.05). P<0.05 was considered as statistically significant.

[3] = Thermogravimetric analyses (TGA); type: physicochemical; settings: 25° C. to 700° C., 10° C. min, nitrogen
Description: TGA were carried on Perkin-Elmer, simultaneous thermal analyzer (STA6000, PerkinElmer, Ohio, USA). TGA data of azole-BG samples were obtained at temperature in the range of 25° C. to 700° C. at the rate of 10° C. min under inert nitrogen flowing at a rate of 20 mL/min.

| SMILES | cancer cell morphology change ([1]; 100 μg/mL) | cancer cell morphology change ([1]; 500 μg/mL) | cancer cell morphology change ([1]; 750 μg/mL) | microscopic evaluation of treated cancer cells (overall) [1] | cancer cell viability (% of control) ([2]; 100 ug/mL) | cancer cell viability (% of control) ([2]; 500 ug/mL) | cancer cell viability (% of control) ([2]; 750 ug/mL) | effect on cancer cells survivability (in words) [2] | attenuating cancer cells proliferation (in words) [2] | dose dependence of effect on cancer cell survivability [2] | temperature of weight loss / degradation by TGA [3] | cancer cell morphology change ([1]; 500 μg/mL, listed as BG-(H3PO4)) | cancer cell morphology change ([1]; 750 μg/mL, listed as BG-(H3PO4)) | cancer cell morphology change ([1]; 500 μg/mL, listed as BG-(ATet)2) | cancer cell morphology change ([1]; 750 μg/mL, listed as BG-(ATet)2) |
| --- | --- | --- | --- | --- | --- | --- | --- | --- | --- | --- | --- | --- | --- | --- | --- |
| OC(CNc1ncn[nH]1)COCCCCOCC(O)CNc1ncn[nH]1 (stereo not drawn) [BG-(ATri)2] | significant levels of nucleus condensation and nuclear augmentation | nuclear condensation and augmentation | Significant loss of cell population; also recorded: strong nuclear condensation and augmentation and showed the beginning of cell membrane disruption | not only affected the cancer cell membrane, but also induced nuclear condensation, augmentation and disintegration | 28.12% | 25.62% | 24.68% | most profound effects on the cancer cells; also recorded: profound effects on cancer cells survivability | highly effective in attenuating cancer cells proliferation | dose dependent effects on cancer cell survivability | – | – | – | – | – |
| OC(COCCCCOCC(O)Cn1cncn1)Cn1cncn1 (stereo not drawn) [BG-(Tri)2] | moderate levels of nucleus condensation and nuclear augmentation | Strong nuclear condensation and augmentation and the beginning of cell membrane disruption | significant loss of cell population; also recorded: nuclear condensation and augmentation | not only affected the cancer cell membrane, but also induced nuclear condensation, augmentation and disintegration | 75% | 26.86% | 21.87% | most profound effects on the cancer cells; also recorded: profound effects on cancer cells survivability | highly effective in attenuating cancer cells proliferation | dose dependent effects on cancer cell survivability | – | – | – | – | – |
| O=P(O)(O)OCC(O)COCCCCOCC(O)COP(=O)(O)O (stereo not drawn) [BG-(H3PO4)2] | disintegrations of cancer cells | strong nuclear condensation and augmentation | strong nuclear condensation and augmentation | not only affected the cancer cell membrane, but also induced nuclear condensation, augmentation and disintegration | 85.31% | 55.93% | 53.12% | profound effects on cancer cells survivability | – | dose dependent effects on cancer cell survivability | Above 200 °C | nuclear condensation and augmentation | strong nuclear condensation and augmentation and showed the beginning of cell membrane disruption | – | – |
| OC(COCCCCOCC(O)Cn1ccnc1)Cn1ccnc1 (stereo not drawn) [BG-(Imi)2] | strong nucleus condensation and nuclear augmentation | further nucleus condensation and augmentation; also recorded: nuclear condensation and augmentation | significant loss of cell population; also recorded: strong nuclear condensation and augmentation and showed the beginning of cell membrane disruption | not only affected the cancer cell membrane, but also induced nuclear condensation, augmentation and disintegration | 25% | 21.87% | 18.75% | most profound effects on the cancer cells; also recorded: profound effects on cancer cells survivability | highly effective in attenuating cancer cells proliferation | dose dependent effects on cancer cell survivability | – | – | – | – | – |
| OC(CNc1nnn[nH]1)COCCCCOCC(O)CNc1nnn[nH]1 (stereo not drawn) [BG-(Atet)2] | strong nucleus condensation and nuclear augmentation | Further nucleus condensation and augmentation | significant loss of cell population | not only affected the cancer cell membrane, but also induced nuclear condensation, augmentation and disintegration | 25% | 22.50% | 18.75% | most profound effects on the cancer cells; also recorded: profound effects on cancer cells survivability | highly effective in attenuating cancer cells proliferation | dose dependent effects on cancer cell survivability | – | – | – | nuclear condensation and augmentation | strong nuclear condensation and augmentation and showed the beginning of cell membrane disruption |

— patent publication US10918624B2, “Anti-cancer azole compounds” (Imam Abdulrahman Bin Faisal University, priority 2019, dated 2021)
